The source of these data is PubChem BioAssay AID618 (Sanford-Burnham Center for Chemical Genomics, 2007).

Calls of active or inactive are those of the source. How the calls were made is not given here. Where only a bound is given, the exact number is not on record here.

For the assay, the system named is MT1-MMP promoter luciferase reporter cells, luminescence. The assay is described as follows: MT1-MMP gene expression reporter suppression – cell-based, luciferase reporter, luminescence (AID 618).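 Further: actives suppress MT1-MMP promoter-driven transcription so potencies describe inhibitors.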
In general, EC50 refers to the concentration needed to bring the measured effect to its halfway point. Turning to `COc1cc(SC)ccc1C(=O)Nc1ccc2c(c1)OCCO2`, the 50% effective concentration (EC50) is 13.2 µM. The figure for `CC(=O)Nc1ccc(OC(=O)N2CCCCC2)cc1` is > 50 µM (inactive); for `O=C(c1ccc(Cl)cc1)N1CCCCC(Sc2nnc(-c3ccc4c(c3)OCO4)o2)C1=O` (centres undefined) it is 0.14 µM. The same measure for `Cc1ccc(-c2nc3cc(N)ccc3o2)cc1`: 2.91 µM; for `COc1cccc(C(=O)Nc2nc3ccccc3[nH]2)c1`: 0.96 µM; for `CC(C)C(=O)Nc1ccc(NC(=O)c2ccccn2)cn1`: 6.27 µM. The same measure for `CC(C)(C)c1ccc(OCC(O)CSc2ncn[nH]2)cc1` (centres undefined): 16.9 µM; for `Cc1ccnc(Nc2nc3ccccc3o2)n1`: 13 µM. With `CCc1ccc(-c2nnn(CCC(=O)OC)n2)cc1`, the EC50 was 2.02 µM. Regarding `Cc1ccc(O)c(/C=N/NC(=O)C2=NNC(c3ccccc3)(c3ccccc3)C2)c1`, the EC50 is 19 µM. The same measure for `Cc1ccc(-c2nc(-c3ccccc3)no2)cc1`: 2.87 µM; for `CCCCCc1ccc(-c2ccc(C(=O)O)cc2)nc1`: 3.53 µM. The same measure for `Cc1ccc(C(=O)N/N=C/c2ccc([N+](=O)[O-])s2)cc1`: 0.3 µM; for `CC(C)(C)c1ccc(C(=O)Nc2ccc(CC(=O)O)cc2)o1`: 0.23 µM. The figure for `CC(=O)N(Cc1ccc(F)cc1)C1=C(NCCc2ccccc2)C(=O)c2ccccc2C1=O` is 12.2 µM. `Cc1ccc(-c2csc3ncnc(Sc4nnc(CN5CCCCCC5=O)o4)c23)cc1`: the concentration for a half-maximal effect (EC50) was 15 µM.

Take `O=C(Nc1ccccn1)c1cc2ccccc2o1`: the EC50 is > 50 µM (inactive). For the compound `O=c1c(Cl)c(N2CCCCC2)cnn1-c1nc2ccccc2[nH]1`, the EC50 was 0.59 µM. The same measure for `COc1ccc(-c2nc3ccccc3[nH]2)cc1`: 2.72 µM; for `CCCCN(C)C(=O)c1cc2cc3ccc(OC)cc3nc2s1`: 3.61 µM. With `CCCCc1ccc(-c2nc(-c3ccncc3)no2)cc1`, the concentration for a half-maximal effect (EC50) is 13.4 µM. `O=C(Nc1nc2c(s1)CCCC2)C1COc2ccccc2O1` (centres undefined): the EC50 is 2.4 µM. The figure for `Cc1cnc(NC(=O)C2COc3ccccc3O2)s1` (centres undefined) is 0.61 µM; for `Cn1c(-c2ccccc2)cnc1SCC(=O)N1CCCCC1` it is 2.88 µM. `CCCCOc1ccc(C(=O)C(CN2CCOCC2)c2ccccc2)cc1` (centres undefined): the EC50 was 13 µM. The figure for `CCCc1ccc(-c2ccc(F)c(N)c2)nc1` is 0.66 µM; for `COc1ccc(C(=O)/C=C/Nc2ccccn2)cc1` it is 0.19 µM; for `O=C(CSc1nnc(-c2csc3c2CCCC3)o1)Nc1ccccc1` it is 4.27 µM.

As for `CCc1cc2c(=O)n(Cc3ccco3)c(SCc3c(C)noc3C)nc2s1`, the EC50 is > 50 µM (inactive). The figure for `CC(C)C(=O)NC(c1ccco1)c1ccc2cccnc2c1O` (centres undefined) is 27.6 µM; for `COc1ccc(C(=O)/C=C/Nc2cccc(O)c2)cc1` it is 1.23 µM. On to `C/C(=N/NC(=O)c1cc(C2CC2)[nH]n1)c1cccs1`, for which the concentration giving a half-maximal response (EC50) is 1.77 µM. The figure for `O=C(NC1=NCCS1)c1cc2ccccc2o1` is 6.52 µM.

As for `Nc1nc(Nc2ccc(Cl)cc2)nc2ccccc12`, the concentration for a half-maximal effect (EC50) is 2.13 µM. The same measure for `O=C(O)c1cccc(C(=O)Nc2cccc(NC(=O)C3CCCO3)c2)c1` (centres undefined): 10.1 µM; for `COc1ccc(NC(=O)/C(Cl)=C(/Cl)S(=O)(=O)Cc2ccc(C)cc2)cn1`: 14.5 µM. For the compound `CC(C)(C)C(=O)N1CCc2cc(-c3csc(N)n3)ccc21`, the EC50 is 1.36 µM. The figure for `Cc1cc(C(=O)CSc2nnc(-c3cccs3)o2)c(C)n1-c1ccccc1` is 7.72 µM; for `COCCn1c(C)cc(C(=O)CSc2ccc(NC(C)=O)cc2)c1C` it is 8.54 µM. `COc1cccc(-c2nc(-c3ccccn3)no2)c1`: the concentration for a half-maximal effect (EC50) is 0.66 µM.

Regarding `CNc1nnc(-c2ccc(N(C)C)cc2)s1`, the EC50 is 5.1 µM.

With `Cc1ccc(NC(=O)N2CCc3ccccc32)cc1`, the EC50 is 3.38 µM. The figure for `Nc1ccc(-c2nc3c(Cl)cc(N)cc3[nH]2)cc1` is 10.7 µM.

Consider `COc1ccccc1-c1nc(-c2ccccn2)no1`, for which the half-maximal effective concentration (EC50) is 1.82 µM.
